Data taken from patent US20010000786A1, “Product for promoting weight loss in overweight dogs” (priority 1998, published 2001).

What was measured:
overweight dogs [1] = test: Body weight and food intake of overweight dogs fed low-fat diets with supplemental L-carnitine; format: in vivo, beagle dogs; details: for average voluntary consumption of the diet: seven weeks of feeding; for body weight change: seven weeks ad libitum, P<0.05 from control
Description: (§1) Thirty adult ovariohysterectomized female beagle dogs were used to study the effects of L-carnitine supplementation on weight loss. All of the animals were current on their vaccination and parasite prevention program. The dogs were housed individually in oversize pens and identified by a unique ear tattoo. Fresh water was provided ad libitum during the entire study period. Food intake was adjusted as necessary to achieve the desired weight for the study period.
Three dietary treatments were evaluated. The study consisted of three periods: weight gain, maintenance, and weight loss. During the eleven-week weight gain period, all dogs were fed a single diet Eukanuba Veterinary Diets® Nutritional Recovery Formula™ which contains 36.1 wt % protein, 26.1 wt % fat, and 2.1 wt % crude fiber) ad libitum.
(§2) At the initiation of the maintenance phase of the study (baseline or day 0), the dogs were randomized based on body weight into three dietary treatment groups of ten dogs each with a three day feed transition period starting on day 0. Each treatment group was randomly assigned to one of three low-fat diets (Table 1). The only difference between diets was the addition of 0, 50, or 100 ppm supplemental L-carnitine. No differences in the initial body weight or body condition score existed between groups.
The dogs were on 100% experimental diet on day 3 and were fed ad libitum during the seven-week maintenance phase of the study.
(§3) During the twelve-week weight loss phase of the study, the same experimental diets were offered as during the maintenance phase. However, the food intake was decreased to produce approximately 1.5 to 2.5% body weight loss per week. Exact amounts of experimental diets were fed to the dogs at approximately the same time each day, and remaining feed amounts were weighed the following day. Food intake and body weight were monitored daily and weekly, respectively. Whole body composition using the Dual Energy X-ray Absorptiometer (DEXA), and blood samples for CBC and chemistry were collected periodically during the study. Whole Body Composition by Dual Energy X-ray Absorptiometry. The dogs were scanned with a Hologic QDR-2000 Plus Dual-Energy X-Ray Absorptiometry (DEXA) bone densitometer, supported with Hologic MXA software, version 8.0. All dogs were anesthetized and placed on the Dual Energy X-ray Absorptiometry (DEXA) table in dorsal recumbency, with legs stretched caudally to avoid overlap of the legs over the body. The dogs were scanned using the Enhanced Array Whole Body software. The body composition measurements recorded consisted of surface area (cm^2), bone mineral content (BMC), bone mineral density (BMD), lean mass, fat content, percent fat, and estimated body weight. All measurements were reported in grams except for percent fat and area (cm^2). Percent lean and percent BMC were calculated from the lean mass, BMC, and estimated body weight data from the DEXA results.
A repeated measure classification analysis of variance was used to study “Treatment” and time dependent “Treatment×Time” effects (Gill and Hafs, J. Animal Sci. 33(2):331(1971)). The variables from the complete blood count, blood chemistry, body composition and body weights were studied using this analysis. All F-tests and mean separations using the Least Square Difference (LSD) used 0.05 Type 1 Error rate. […]

overweight dogs [2] = test: Whole body composition by Dual Energy X-ray Absorptiometry (DEXA); format: in vivo, beagle dogs
Description: as §1, §2, §3
The whole body composition was performed concomitantly and under anesthesia. The anesthetic regimen consisted of Atropine (0.01 mg/lb) as a pre-anesthetic, the combination Xylazine/Telazol/Torbugesic (0.8/6.7/0.13 mg/kg) as induction and Isoflurane (Aerrane, Ohmeda Pharmaceutical Products, Liberty Corner, N.J.) as a maintenance agent using a nose cone.
A repeated measure classification analysis of variance was used to study “Treatment” and time dependent “Treatment×Time” effects (Gill and Hafs, J. Animal Sci. 33(2):331(1971)). The variables from the complete blood count, blood chemistry, body composition and body weights were studied using this analysis. All F-tests and mean separations using the Least Square Difference (LSD) used 0.05 Type 1 Error rate. One degree of freedom comparisons between experimental diets B versus C (comparison 1) and A versus B and C (comparison 2) were computed for the body composition and body weight variables. Comparisons 1 and 2 form an orthogonal set. An a of 0.05 was used to test for non-zero value of the mean of the two groups defined per contract. The “Treatment×Time” interaction was investigated by computing a test for linear, quadratic, and cubic response over time for each treatment. Then a test of parallelism, equal quadric response and equal cubic response was done to test equality of trend in response among treatments. An α of 0.05 for the F-tests was used in all cases. All computations were done using SAS (statistical analysis system) software (1989).

[3] = 50 ppm supplemental carnitine, Week 0
[4] = 50 ppm supplemental carnitine, Week 7
[5] = 100 ppm supplemental carnitine, Week 0
[6] = 100 ppm supplemental carnitine, Week 7

Question: How did the “total weight loss per total food intake compared with no supplementation” value (overweight dogs [1]; 50 and 100 ppm, FIG. 7, P<0.05) turn out when `C[N+](C)(C)C[C@H](O)CC(=O)[O-]` [L-carnitine] was run?
Answer: greater total weight loss per total food intake

Question: What about the “average voluntary consumption of the diet” value (overweight dogs [1]; 50 ppm carnitine) of the same molecule?
Answer: 1574 g/week

Question: And the body weight change (overweight dogs [1]; 50 ppm supplemental carnitine in low-fat diet)?
Answer: −6.4%

Question: And the “average voluntary consumption of the diet” value (overweight dogs [1]; 100 ppm carnitine)?
Answer: 1567 g/week

Question: And the body weight change (overweight dogs [1]; 100 ppm supplemental carnitine in low-fat diet)?
Answer: −5.7%

Question: What about the “lean body mass compared with no supplementation” value (overweight dogs [2]; 50 and 100 ppm, FIG. 6) of the same molecule?
Answer: leaner body mass

Question: What about the “body fat loss compared to no (0 ppm) supplementation” value (overweight dogs [2]; 50 and 100 ppm, difference day 0 to day 49, day 92, day 133 as percentage of day 0, FIG. 5) of the same molecule?
Answer: more body fat loss (P<0.05)

Question: What about the “body fat loss compared to 0 ppm supplementation” value (overweight dogs [2]; 50 and 100 ppm, difference day 0 to day 49 as percentage of day 0, FIG. 4) of the same molecule?
Answer: more body fat loss (P<0.05)

Question: What about the “BMC (bone mineral content) as percent of total body mass” value (“BMC (bone mineral content) as percent” below) (overweight dogs [2]; [3]) of the same molecule?
Answer: 1.6%

Question: And the “Fat mass as percent of total body mass” value (overweight dogs [2]; [3])?
Answer: 42.4%

Question: What about the “LBM (lean body mass) as percent of total body mass” value (shortened to “LBM (lean body mass) as percent”) (overweight dogs [2]; [3]) of the same molecule?
Answer: 56.0%

Question: And the “BMC (bone mineral content) as percent” value (overweight dogs [2]; [4])?
Answer: 1.7%

Question: What about the “Fat mass as percent of total body mass” value (overweight dogs [2]; [4]) of the same molecule?
Answer: 37.8%

Question: What about the “LBM (lean body mass) as percent” value (overweight dogs [2]; [4]) of the same molecule?
Answer: 60.5%

Question: And the “BMC (bone mineral content) as percent” value (overweight dogs [2]; [5])?
Answer: 1.6%

Question: What about the “Fat mass as percent of total body mass” value (overweight dogs [2]; [5]) of the same molecule?
Answer: 42.5%

Question: What about the “LBM (lean body mass) as percent” value (overweight dogs [2]; [5]) of the same molecule?
Answer: 55.9%

Question: And the “BMC (bone mineral content) as percent” value (overweight dogs [2]; [6])?
Answer: 1.6%

Question: And the “Fat mass as percent of total body mass” value (overweight dogs [2]; [6])?
Answer: 38.9%

Question: And the “LBM (lean body mass) as percent” value (overweight dogs [2]; [6])?
Answer: 59.5%
